Test results published in patent US10052331B2, “3-(3H-imidazo[4,5-C]pyridin-2-yl)-1H-pyrazolo[3,4-C]pyridine and therapeutic uses thereof” (Samumed, LLC, priority 2014, dated 2018).

What was measured:
[1] = test system: Wnt activity (Wnt-responsive Sp5 promoter-luciferase reporter in SW480 cells); experiment: Wnt activity screening assay: Sp5-Luc reporter gene in SW480 colon carcinoma cells; type: cell-based; conditions: Homo sapiens
How it was run: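 IC50 values come from variable-slope four-parameter fits of luciferase signal normalized to DMSO wells. Stable Sp5-Luc reporter SW480 colon carcinoma cells were exposed to compounds in a 3-fold dilution series (source plates from 10 mM stock) for forty-two hours at 37 °C.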

[2] = test system: primary human fibroblasts derived from IPF patients (LL29 cells); experiment: Inhibition of fibrotic process: αSMA staining in TGF-β1-treated primary human fibroblasts from IPF patients (LL29 cells); type: cell-based; conditions: Fibroblast, 96 h, LL29 cells treated with TGF-β1 (20 ng/mL), 4 days, 11-point dose-response from 10 μM to 1.87 nM, read-out: Inhibition of fibrosis EC50
Description: The above synthesized compounds were screened using primary human fibroblasts (derived from IPF patients) treated with TGF-β1 to determine their ability to inhibit the fibrotic process.
Primary human fibroblasts derived from IPF patients (LL29 cells) [^1Xiaoqiu Liu, et. al., “Fibrotic Lung Fibroblasts Show Blunted Inhibition by cAMP Due to Deficient cAMP Response Element-Binding Protein Phosphorylation”, Journal of Pharmacology and Experimental Therapeutics (2005), 315(2), 678-687; ^2Watts, K. L., et. al., “RhoA signaling modulates cyclin D1 expression in human lung fibroblasts; implications for idiopathic pulmonary fibrosis”, Respiratory Research (2006), 7(1), 88] were obtained from American Type Culture Collection (ATCC) and expanded in F12 medium supplemented with 15% Fetal Bovine Serum and Penicillin/Streptomycin.
Each compound was dissolved in DMSO as a 10 mM stock and used to prepare compound source plates. Serial dilution (1:2, 11-point dose-response curves from 10 μM to 1.87 nM) and compound transfer was performed using the ECHO 550 (Labcyte, Sunnyvale, Calif.) into 384-well clear bottom assay plates (Greiner Bio-One) with appropriate DMSO backfill for a final DMSO concentration of 0.1%. LL29 cells were plated at 1,500 cells/well in 80 μl/well F12 medium supplemented with 1% Fetal Bovine Serum. One hour after addition of the cells, TGF-β1 (Peprotech; 20 ng/mL) was added to the plates to induce fibrosis (ref. 1 and 2 above). Wells treated with TGF-β1 and containing DMSO were used as controls. Cells were incubated at 37° C. and 5% CO2 for 4 days. Following incubation for 4 days, SYTOX green nucleic acid stain (Life Technologies [Thermo Fisher Scientific]) was added to the wells at a final concentration of 1 uM and incubated at room temperature for 30 min. Cells were then fixed using 4% formaldehyde (Electron Microscopy Sciences), washed 3 times with PBS followed by blocking and permeabilization using 3% Bovine Serum Albumin (BSA; Sigma) and 0.3% Triton X-100 (Sigma) in PBS. Cells were then stained with antibody specific to α-smooth muscle actin (αSMA; Abcam) (ref. 1 and 2 above) in 3% Bovine Serum Albumin (BSA; Sigma) and 0.3% Triton X-100 (Sigma) in PBS, and incubated overnight at 4° C. Cells were then washed 3 times with PBS, followed by incubation with Alexa Flor-647 conjugated secondary antibody (Life Technologies [Thermo Fisher Scientific]) and DAPI at room temperature for 1 hour. Cells were then washed 3 times with PBS and plates were sealed for imaging. αSMA staining was imaged by excitation at 630 nm and emission at 665 nm and quantified using the Compartmental Analysis program on the CellInsight CX5 (Thermo Scientific). Dead or apoptotic cells were excluded from analysis based on positive SYTOX green staining. % of total cells positive for αSMA were counted in each well and normalized to the average of 11 wells treated with TGF-β1 on the same plate using Dotmatics' Studies Software. The normalized averages (fold change over untreated) of 3 replicate wells for each compound concentration were used to create dose-responses curves and EC50 values were calculated using non-linear regression curve fit in the Dotmatics' Studies Software. The EC50 values are reported.

Row | Structure (SMILES) | IC50 [1] | EC50 [2]
1 | CN1CCN(c2cncc3[nH]c(-c4n[nH]c5cnc(-c6cncc(N)c6)cc45)nc23)CC1 [Compound 211, 5-(3-(7-(4-Methylpiperazin-1-yl)-3H-imidazo[4,5-c]pyridin-2-yl)-1H-pyrazolo[3,4-c]pyridin-5-yl)pyridin-3-amine] | > 10 µM | ≤ 0.009 µM
2 | CC(C)C(=O)Nc1cncc(-c2cc3c(-c4nc5c(N6CCN(C)CC6)cncc5[nH]4)n[nH]c3cn2)c1 [Compound 217, N-(5-(3-(7-(4-Methylpiperazin-1-yl)-3H-imidazo[4,5-c]pyridin-2-yl)-1H-pyrazolo[3,4-c]pyridin-5-yl)pyridin-3-yl)isobutyramide] | 0.557 µM | ≥ 9.99 µM
3 | CN1CCN(c2cncc3[nH]c(-c4n[nH]c5cnc(-c6cncc(CN7CCCCC7)c6)cc45)nc23)CC1 [Compound 223, 3-(7-(4-Methylpiperazin-1-yl)-3H-imidazo[4,5-c]pyridin-2-yl)-5-(5-(piperidin-1-ylmethyl)pyridin-3-yl)-1H-pyrazolo[3,4-c]pyridine] | 1.39 µM | ≥ 9.99 µM
4 | CN1CCN(c2cncc3[nH]c(-c4n[nH]c5cnc(-c6cncc(NC(=O)C7CCCC7)c6)cc45)nc23)CC1 [Compound 229, N-(5-(3-(7-(4-Methylpiperazin-1-yl)-3H-imidazo[4,5-c]pyridin-2-yl)-1H-pyrazolo[3,4-c]pyridin-5-yl)pyridin-3-yl)cyclopentanecarboxamide] | 0.44 µM | ≥ 9.99 µM
5 | CN1CCN(c2cncc3[nH]c(-c4n[nH]c5cnc(-c6cncnc6)cc45)nc23)CC1 [Compound 234, 3-(7-(4-methylpiperazin-1-yl)-3H-imidazo[4,5-c]pyridin-2-yl)-5-(pyrimidin-5-yl)-1H-pyrazolo[3,4-c]pyridine] | 0.379 µM | 0.966 µM
6 | Cc1ccncc1-c1cc2c(-c3nc4c(-c5ccsc5)cncc4[nH]3)n[nH]c2cn1 [Compound 239, 5-(4-Methylpyridin-3-yl)-3-(7-(thiophen-3-yl)-3H-imidazo[4,5-c]pyridin-2-yl)-1H-pyrazolo[3,4-c]pyridine] | 0.04 µM | ≤ 0.009 µM
7 | c1ccc(CNCc2cncc(-c3cc4c(-c5nc6c(-c7ccsc7)cncc6[nH]5)n[nH]c4cn3)c2)cc1 [Compound 257, N-Benzyl-1-(5-(3-(7-(thiophen-3-yl)-3H-imidazo[4,5-c]pyridin-2-yl)-1H-pyrazolo[3,4-c]pyridin-5-yl)pyridin-3-yl)methanamine] | 0.653 µM | 2.63 µM
8 | CCNCc1cncc(-c2cc3c(-c4nc5c(-c6ccoc6)cncc5[nH]4)n[nH]c3cn2)c1 [Compound 266, N-((5-(3-(7-(Furan-3-yl)-3H-imidazo[4,5-c]pyridin-2-yl)-1H-pyrazolo[3,4-c]pyridin-5-yl)pyridin-3-yl)methyl)ethanamine] | > 10 µM | ≥ 9.99 µM
9 | CC(C)Nc1cncc(-c2cc3c(-c4nc5c(-c6ccoc6)cncc5[nH]4)n[nH]c3cn2)c1 [Compound 272, 5-(3-(7-(Furan-3-yl)-3H-imidazo[4,5-c]pyridin-2-yl)-1H-pyrazolo[3,4-c]pyridin-5-yl)-N-isopropylpyridin-3-amine] | 0.0376 µM | ≤ 0.009 µM
10 | c1cc(-c2cncc3[nH]c(-c4n[nH]c5cnc(-c6cncc(CNCC7CCCC7)c6)cc45)nc23)co1 [Compound 284, 1-Cyclopentyl-N-((5-(3-(7-(furan-3-yl)-3H-imidazo[4,5-c]pyridin-2-yl)-1H-pyrazolo[3,4-c]pyridin-5-yl)pyridin-3-yl)methyl)methanamine] | 0.261 µM | 0.908 µM
11 | CN(C)c1cncc(-c2cc3c(-c4nc5c(-c6cccs6)cncc5[nH]4)n[nH]c3cn2)c1 [Compound 293, N,N-Dimethyl-5-(3-(7-(thiophen-2-yl)-3H-imidazo[4,5-c]pyridin-2-yl)-1H-pyrazolo[3,4-c]pyridin-5-yl)pyridin-3-amine] | 0.319 µM | ≤ 0.009 µM
12 | CN(C)Cc1cncc(-c2cc3c(-c4nc5c(-c6cccs6)cncc5[nH]4)n[nH]c3cn2)c1 [Compound 299, N,N-Dimethyl-1-(5-(3-(7-(thiophen-2-yl)-3H-imidazo[4,5-c]pyridin-2-yl)-1H-pyrazolo[3,4-c]pyridin-5-yl)pyridin-3-yl)methanamine] | 0.588 µM | ≤ 0.009 µM
13 | O=C(Nc1cncc(-c2cc3c(-c4nc5c(-c6cccs6)cncc5[nH]4)n[nH]c3cn2)c1)C1CC1 [Compound 305, N-(5-(3-(7-(Thiophen-2-yl)-3H-imidazo[4,5-c]pyridin-2-yl)-1H-pyrazolo[3,4-c]pyridin-5-yl)pyridin-3-yl)cyclopropanecarboxamide] | 0.0351 µM | > 10 µM
14 | FC1(F)CCN(Cc2cncc(-c3cc4c(-c5nc6c(-c7cccs7)cncc6[nH]5)n[nH]c4cn3)c2)C1 [Compound 311, 5-(5-((3,3-Difluoropyrrolidin-1-yl)methyl)pyridin-3-yl)-3-(7-(thiophen-2-yl)-3H-imidazo[4,5-c]pyridin-2-yl)-1H-pyrazolo[3,4-c]pyridine] | 0.0705 µM | 0.254 µM
15 | Fc1ccc(-c2cncc3[nH]c(-c4n[nH]c5cnc(-c6cncc(CN7CCCC7)c6)cc45)nc23)s1 [Compound 326, 3-(7-(5-Fluorothiophen-2-yl)-3H-imidazo[4,5-c]pyridin-2-yl)-5-(5-(pyrrolidin-1-ylmethyl)pyridin-3-yl)-1H-pyrazolo[3,4-c]pyridine] | 0.772 µM | ≤ 0.009 µM
16 | O=C(Nc1cncc(-c2cc3c(-c4nc5c(-c6ccc(F)s6)cncc5[nH]4)n[nH]c3cn2)c1)C1CCC1 [Compound 332, N-(5-(3-(7-(5-Fluorothiophen-2-yl)-3H-imidazo[4,5-c]pyridin-2-yl)-1H-pyrazolo[3,4-c]pyridin-5-yl)pyridin-3-yl)cyclobutanecarboxamide] | 0.0328 µM | 1.05 µM
17 | CCNCc1cncc(-c2cc3c(-c4nc5c(-c6ccc(C)s6)cncc5[nH]4)n[nH]c3cn2)c1 [Compound 344, N-((5-(3-(7-(5-Methylthiophen-2-yl)-3H-imidazo[4,5-c]pyridin-2-yl)-1H-pyrazolo[3,4-c]pyridin-5-yl)pyridin-3-yl)methyl)ethanamine] | 0.0254 µM | 0.06 µM
18 | Cc1ccc(-c2cncc3[nH]c(-c4n[nH]c5cnc(-c6cncc(NC(=O)C(C)(C)C)c6)cc45)nc23)s1 [Compound 346, N-(5-(3-(7-(5-Methylthiophen-2-yl)-3H-imidazo[4,5-c]pyridin-2-yl)-1H-pyrazolo[3,4-c]pyridin-5-yl)pyridin-3-yl)pivalamide] | 0.017 µM | 0.03 µM
19 | Cc1ccc(-c2cncc3[nH]c(-c4n[nH]c5cnc(-c6cncc(NC(=O)C(C)C)c6)cc45)nc23)s1 [Compound 347, N-(5-(3-(7-(5-Methylthiophen-2-yl)-3H-imidazo[4,5-c]pyridin-2-yl)-1H-pyrazolo[3,4-c]pyridin-5-yl)pyridin-3-yl)isobutyramide] | 0.0075 µM | ≤ 0.009 µM
20 | Cc1ccc(-c2cncc3[nH]c(-c4n[nH]c5cnc(-c6cncc(CN7CCCCC7)c6)cc45)nc23)s1 [Compound 353, 3-(7-(5-Methylthiophen-2-yl)-3H-imidazo[4,5-c]pyridin-2-yl)-5-(5-(piperidin-1-ylmethyl)pyridin-3-yl)-1H-pyrazolo[3,4-c]pyridine] | 1.04 µM | 0.251 µM
